Results on two molecules are retold here after patent US20010046498A1, “Chimeric prostate-homing peptides with pro-apoptotic activity” (priority 2000, published 2001).

Like-named read-outs stand apart in the source and are kept apart here. Bridge positions count the residues as written; N and C are the ends. Square brackets hold non-standard residues; d marks the D form. Peptide text beside a SMILES is read from it.

Data set [1] concerns tumors derived from the human melanoma cell line C8161. Nature of the data set: Treatment of nude mice bearing C8161 melanoma xenografts. In kind it is in vivo. The conditions noted are these: similar experiments. The procedure:
(§1) The activity of HPP-1 was tested in vivo using nude mice bearing human MDA-MD-435 breast carcinoma xenografts as follows. Briefly, MDA-MB-435 and C8161-derived tumor xenografts were established in 2 month-old female nude mice (Jackson Labs; Bar Harbor, Me.) as described in Arap et al., supra, 1998. After mice were anesthetized with a mixture of 2,2,2-tribromoethanol (Aldrich; Milwaukee, Wis.) and 2-methyl-butanol (Aldrich) prepared in distilled water, peptides were administered intravenously through the tail vein at a dose of 250 μg/week/mouse given slowly in a volume of 200 μl. Three-dimensional measurements of tumors were taken by caliper under anesthesia and used to calculate tumor volume (Pasqualini et al., supra, 1996).

Data set [2] concerns MDA-MB-435 human breast carcinoma cells. Nature of the data set: LC50 for MDA-MB-435 cells scored by apoptotic morphology. In kind it is cell-based. As for the experimental part: (§2) Briefly, dermal microvessel endothelial cells (DMECs) were grown in CADMEC Growth Media™ (Cell Applications, Inc.; San Diego, Calif.). Dermal microvessel endothelial cells were then cultured under three experimental conditions: proliferation, 30% confluency in a growth media supplemented with 500 ng/ml human recombinant vascular endothelial growth factor (VEGF; Pharmingen); no proliferation, 100% confluency in media formulated to maintain a monolayer; and cord formation, 60% confluency (required for induction) in media formulated to induce cord formation. The KS1767 and MDA-MB-435 cells were cultured as described in Arap et al., supra, 1998; Hernier et al., supra, 1994).
(§3) Percent viability and LC50 (Table 1) were determined by apoptotic morphology as described in Ellerby et al., J. Neurosci. 17:6165-6178 (1997). For the percent viability assays, dermal microvessel endothelial cells were treated with 60 μM HPP-1 or control peptide D(KLAKLAK)2. At the indicated time points, cell culture medium was aspirated from adherent cells, and the cells were gently washed once with PBS at 37° C. […] At least 500 cells were scored for a given time point in each experiment. Percent viability was calculated relative to untreated controls. The LC50 for monolayer, proliferation (60% confluency), and cord formation were scored at 72 hours.

In data set [3] the test system is human MDA-MD-435 breast carcinoma xenografts. Nature of the data set: Treatment of nude mice bearing breast carcinoma xenografts. The data set is classed as in vivo. As for the experimental part:
as §1

In data set [4] the test system is caspase activation in dermal microvessel endothelial cells. The experiment in a line: Caspase activity (DEVD-pNA hydrolysis) in DMEC lysates. The conditions noted are these: proliferating DMECs. The data set is classed as cell-based, human. As for the experimental part:
Characteristic caspase-3 processing was measured in dermal microvessel endothelial cell lysates as described in Ellerby et al., supra, 1997. Briefly, aliquots of cell lysates (1 μl lysate, 8-15 mg/ml) were added to 100 μM N-acetyl-Asp-Glu-Val-Asp-pNA (DEVD-pNA; BioMol; 100 μl, 100 mM HEPES, 10% sucrose, 0.1% CHAPS, 1 mM DTT, pH 7.0). Hydrolysis of DEVD-PNA was monitored spectrophotometrically (400 nm) at 25° C.

For a further data set, the system named is KS1767 cells. The experiment in a line: LC50 for KS1767 cells scored by apoptotic morphology. The data set is classed as cell-based. The conditions noted are these: proliferating KS1767 cells; read-out: LC50 KS1767 Prolif. As for the experimental part: as §2, §3
Data set [5] deals with dermal microvessel endothelial cells. Nature of the data set: Mitochondrial morphology of proliferating DMECs (MitoTracker Red / DAPI). The data set is classed as cell-based, human. The conditions noted are these: 60 μM peptide. As for the experimental part:
Mitochondrial morphology of dermal microvessel endothelial cells was assessed in proliferating cells after treatment with 60 μM HPP-1, […]-GG-D(KLAKLAK)2 or untargeted D(KLAKLAK)2 as follows. Dermal microvessel endothelial cells were stained after 24 and 72 hours treatment with peptide by incubation for 30 min at 37° C. with 100 nM mitochondrial stain MitoTracker Red™ (Molecular Probes, Inc., Eugene Oreg.) and 500 nM of the nuclear stain DAPI (Molecular Probes, Inc.). Mitochondria were subsequently visualized using fluorescence microscopy (100×) under an inverted microscope using a triple wavelength filter set (Nikon).

Data set [6] concerns normal human dermal microvessel endothelial cells (DMECs). The experiment in a line: in vitro. In kind it is cell-based. The conditions noted are these: for CC50: scored at 72 hours. As for the experimental part:
(§4) The effect of HPP-1 was assayed on normal human dermal microvessel endothelial cells (DMECs) under the angiogenic conditions of proliferation and cord formation. In addition, the effect of HPP-1 was assayed under the angiostatic condition of a monolayer maintained at 100% confluency (as described below).
as §2
as §3, with “C. Subsequently, a 20-fold dilution of the dye mixture (100 μg/ml acridine orange and 100 μg/ml ethidium bromide) in PBS was gently pipetted on the cells, which were viewed on an inverted microscope (Nikon TE 300).” for “C.”

A further data set can be described thus: in vitro. In kind it is cell-based. The conditions noted are these: human; monolayer at 100% confluency; scored at 72 hours; means of three independent experiments; read-out: LC50 DMEC Angiostatic. The procedure:
as §4, §2
as §3, with “C. Subsequently, a 20-fold dilution of the dye mixture (100 μg/ml acridine orange and 100 μg/ml ethidium bromide) in PBS was gently pipetted on the cells, which were viewed on an inverted microscope (Nikon TE 300).” for “C.”

In data set [7] the test system is normal human dermal microvessel endothelial cells (DMECs). In kind it is cell-based. Further details: dose or concentration left out as unconfirmed. The conditions noted are these: proliferation or cord formation.
A further data set deals with tumor. The experiment in a line: Competition of GSL phage homing by free peptide. The conditions noted are these: mouse, in vivo. Also noted: species or system mice. From the text:
A third motif, GSL (glycine-serine-leucine), also was identified following in vivo panning in mice bearing breast carcinoma, malignant melanoma or Kaposi's sarcoma. Homing of phage expressing the GSL peptide, CGSLVRC (SEQ ID NO: 5), was inhibited by coadministration of the free CGSLVRC (SEQ ID NO: 5) peptide. Like the RGD and NGR peptides, phage expressing GSL peptides also bound to blood vessels of tumors. In view of the identification of the conserved RGD, NGR and GSL motifs present in tumor homing peptides, as disclosed herein, it will be recognized that peptides containing such motifs can be useful as tumor homing peptides and, in particular, for forming homing pro-apoptotic conjugates that can selectively deliver an […] peptide to a tumor.

Setting [8] is: 250 μg/week/mouse intravenously.

`CC(C)C[C@@H](NC(=O)[C@@H](CCCCN)NC(=O)CNC(=O)CNC(=O)[C@@H]1CSSC[C@H](N)C(=O)N[C@@H](CC(N)=O)C(=O)NCC(=O)N[C@@H](CCCNC(=N)N)C(=O)N1)C(=O)N[C@H](C)C(=O)N[C@H](CCCCN)C(=O)N[C@H](CC(C)C)C(=O)N[C@H](C)C(=O)N[C@H](CCCCN)C(=O)N[C@H](CCCCN)C(=O)N[C@H](CC(C)C)C(=O)N[C@H](C)C(=O)N[C@H](CCCCN)C(=O)N[C@H](CC(C)C)C(=O)N[C@H](C)C(=O)N[C@H](CCCCN)C(=O)O` [HPP-1, CNGRC-GG-D(KLAKLAK)2] (H-CNGRCGG[dK][dL][dA][dK][dL][dA][dK][dK][dL][dA][dK][dL][dA][dK]-OH; disulfide 1-5): the “effect against C8161 melanoma tumors” value in data set [1] is “effective”. For the same molecule, the “toxicity to MDA-MB-435 cells relative to KS1767 cells and angiogenic DMECs” value in [2] is on record as “less toxic to MDA-MB-435 human breast carcinoma cells by approximately one order of magnitude”. The CC50 is 415 µM in data set [2] (proliferating MDA-MB-435 cells, read-out: LC50 MDA-MB-435 Prolif.); 42 µM in the data set on KS1767 cells; 34 µM in [6] (cord formation, read-out: LC50 DMEC Angiogenic Cord Form); 51 µM in data set [6] (proliferation with VEGF, read-out: LC50 DMEC Angiogenic Prolif.). In addition, in data set [3] (setting [8]), the “histopathological analysis of tumors” value is “pronounced destruction of tumor architecture and widespread cell death”. Besides, the “survival versus control groups” value in [3] (setting [8]) is “survival was longer”. The “tumor volume versus controls” value in data set [3] (setting [8]) is on record as “smaller, on average by one order of magnitude”. Also, the “apoptotic cell death in tumors” value in [3] (histopathological analysis) was “about 50%”. Further, the “apoptotic cell death by caspase activity” value in [4] is reported as “Apoptotic cell death was confirmed”. Moreover, the “morphological indicators of apoptosis (nuclear condensation and fragmentation)” value in data set [5] (72 hours) was “exhibited the classic morphological indicators of apoptosis”. In addition, the “cells with altered mitochondrial morphology” value in [5] (proliferating cells, before the cells rounded-up) is recorded as “approximately 80%”. Also, the “LC50 for proliferating or migrating DMECs relative to LC50 for angiostatic DMECs” value in data set [6] (angiogenic versus angiostatic conditions) is on record as “an order of magnitude lower”. Further, the CC50 at 72 h in “in vitro” stood at 481 µM. For the same molecule, in [7], the “percent viability with time relative to untreated controls” value is “decrease in percent viability with time”.
As for CGSLVRC [GSL tumor homing peptide], in the data set with tumor, the “effect of coadministered free peptide on homing of CGSLVRC phage” value is “inhibited”.
